Key:
nitrotyrosine = test: Nitrotyrosine immunostaining of spinal cord (oxidative stress); type: in vivo, rat; settings: 7 days post injury
Procedure: (§1) Injectable methylprednisolone (MP) solution (62.5 mg/ml) was obtained from Pfizer. MP was conjugated to the chain terminus of methoxy HPMA, an amphiphilic macromolecular prodrug. In parallel, IRDye® 800CW-MP-HPMA (MP-Nano-IRDye) and Alexa Fluor 488-labeled HPMA-MP (MP-Nano-Alexa 488) were also synthesized for optical imaging to visualize the bio-distribution of MP-Nano. Immediately after spinal cord transection, animals were administered an intravenous injection of freshly prepared MP-Nano (60 mg/kg, equivalent to 20% free MP dose at 30 mg/kg), MP (30 mg/kg) or vehicle (propylene glycol) by tail vein, followed by implantation of an Alzet pump (Durect Co, Cupertino, Calif., USA) which provided a 24-h infusion of MP at 5.4 mg/kg/hr (SCI-MP), or vehicle (propylene glycol) (SCI-veh and SCI-Nano-MP) into a subcutaneous pocket. These dosing of MP corresponds on an mg per kg basis to that prescribed by the Bracken protocol. Sham-transected animals underwent laminectomy and implantation of the same Alzet pumps, with vehicle (propylene glycol) infusion instead, as baseline controls.
(§2) At 2 and 7 days after injury, animals (sham, SCI-veh, SCI-MP, SCI-Nano-MP, n=5 animals for each condition and time point) were perfused transcardially with 4% paraformaldehyde. […] Fluorescence intensity quantifications were performed in the ImageJ software (NIH).

[1] = test system: MAFbx/atrogin-1 and MuRF1; test: MAFbx and MuRF1 mRNA in muscle; type: in vivo, rat; settings: 2 days post injury
Procedure: (§3) Total RNAs from gastrocnemius, soleus and bone were extracted using the TRI reagent (Sigma-Aldrich). For western blot analysis, gastronemius and soleus muscle tissue were lysed in RIPA buffer. Protein concentrations were determined using the BCA method. 30 μg protein lysate was used for the SDS-PAGE protein separation, and blots were probed with FOXO1 antibody.
(§4) Real time PCR was used for the determination of mRNA levels as described previously. One μg of total RNA was used to synthesize the first strand cDNA by the High Capacity cDNA Reverse Transcription Kit (Applied Biosystems). qPCR was performed with an Applied Biosystems (ABI) Via 7 thermal cycler using ABI Taqman 2×PCR mix and ABI Assay on Demand qPCR primers. Changes in expression were calculated using the 2-ΔΔCt method using 18S RNA as the internal control.

[2] = test system: TRAP, calcitonin receptor (CTR) and Integrin β3; test: Osteoclastic marker mRNA in bone (TRAP, CTR, Integrin β3); type: in vivo, rat; settings: whole bone RNA
Procedure: (§5) Total bone RNA was extracted as previously described with some modifications. Briefly, long bones were dissected free of soft tissues, and bone marrow were flushed away with PBS using a 27 G ½ needle-syringe. The bone samples (˜1 g) were longitudinally cut into small piece and then digested 3 times with 2 mg/ml collagenase type I (Gibco, >150 Units; 20 ml), one time with 5 mM EDTA (Sigma-Aldrich, 10 ml)), and one more with the collagenase and EDTA, each for 25 min on a Shaker with rotation at 150 rpm at 370 C. Following the digestions, the bone samples were crushed using a mortar and pestle in liquid nitrogen. RNA was extracted from the lysate using the TRizol reagent (Sigma Aldrich) according to the manufacturer's instructions.
as §4

[3] = Body weight and food intake after acute SCI; type: in vivo, rat
Procedure: All animals were maintained on a 12:12-h light/dark cycle with lights on at 07:00 h in a temperature-controlled (20±2° C.) vivarium. Spinal cord transection surgery was performed as previously described. In brief, 9-week-old Wistar rats (Charles River) were anesthetized by inhalation of isofluorane (3-5%) and hair was removed with a clipper. Skin over the back was cleaned with betadine and isopropyl alcohol. After making a midline incision the spinal cord at the site of transection (T4) was visualized by laminectomy, and the spinal cord was transected with microscissors. The space between transected ends of the spinal cord was filled with surgical sponge and the wound was closed in two layers with suture. Urine was manually expressed 3 times daily until automaticity develops, then as needed. Baytril was administered for the first 3 to 5 days postoperatively then as needed for sign of cloudy or bloody urine or wound infection. Sham-transected animals received a laminectomy-only surgery.
Injectable methylprednisolone (MP) solution (62.5 mg/ml) was obtained from Pfizer. MP was conjugated to the chain terminus of methoxy HPMA, an amphiphilic macromolecular prodrug to produce a polymeric methylprednisolone conjugate. […]

[4] = Areal bone mineral density by DXA; type: in vivo, rat
Procedure: (§6) Areal bone mineral density (BMD) measurements were performed by using a small animal dual-energy X-ray absorptiometer (DXA) (Lunar Piximus, Fitchburg, Wis., USA) as previously described. Volumetric BMD and bone architecture of the distal femur were assessed by a Scanco μCT scanner (μCT-40; Scanco Medical AG, Bassersdorf, Switzerland) at […] isotropic voxel size as previously described.

gastrocnemius muscle = test: Muscle histology (H&E) of gastrocnemius, fiber cross-sectional area; type: in vivo, rat
Procedure: Pieces of gastrocnemius muscle were frozen in isopentane pre-cooled on dry ice and stored at −80° C. Transverse sections (10 μm) were then cut on Leika CM3050S cryostat and mounted directly onto cooled glass slides followed by hematoxylin & eosin (H&E) staining. Stained sections were viewed in the EVOS FL Auto system (Life Technologies). Fiber size measurement and distribution was performed using the ImageJ software (NIH).

[5] = Bone architecture by high-resolution μCT; type: in vivo, rat
Procedure: as §6

[6] = Fasting blood glucose level; type: in vivo, rat; settings: 2 days post injury
From the text: Rats were fasted overnight in clean cages with free access to water in new clean bottles. The next morning prior to sacrifice, fasted blood glucose measurement was taken by applying tail blood to a Contour Blood Glucose Monitoring System (Bayer).

TNF-α [7] = test: TNF-α mRNA in gastrocnemius and soleus muscle; type: in vivo, rat; settings: 2 days post injury
Procedure: as §3, §4

G6PC = G6PC gene expression in gastrocnemius muscle (qPCR); type: in vivo, rat; settings: SCI animals
Procedure: as §3, §4

GLUT4 = GLUT4 gene expression in gastrocnemius muscle (qPCR); type: in vivo, rat; settings: SCI animals
Procedure: as §3, §4

[8] = intravenous; cited from earlier work
SOST = SOST mRNA in bone; type: in vivo, rat; settings: p<0.05
Procedure: as §5, §4

RANKL = RANKL mRNA and OPG/RANKL ratio in bone; type: in vivo, rat; settings: whole bone RNA
Procedure: as §5, §4

TNF-α [9] = test: TNF-α immunostaining of spinal cord (inflammation); type: in vivo, rat; settings: 7 days post injury
Procedure: as §1, §2

[10] = Skeletal muscle mass after acute SCI; type: in vivo, rat
Procedure: At the end of animal study, animals were euthanized by inhalation of isofluorane prior to harvesting of tissue for study. Gastrocnemius, soleus, plantaris, EDL, bicep and tricep muscle on both sides were dissected, weighed and stored at −80° C. for further analysis. The leg was removed using sterile technique; careful dissection was performed to free the head of the femur from the pelvis. To preserve bone for micro-CT study, the left leg was removed and placed into tubes containing 4% PFA overnight, after which the PFA will be replaced with 70% ethanol for storage. The right femur and tibia (n=4-5 per group) were placed in ice-cold Minimum Essential Alpha Medium (α-MEM), and then immediately processed for extraction of total RNA from bone.

FOXO1 = FOXO1 protein level in muscle (western blot); type: in vivo, rat
Procedure: as §3

osteoclastic markers TRAP, CTR and Integrin β3 mRNA vs. sham [2]: increase
decrease in BMD at the distal femur vs. sham [4]: 11%
decrease of BMD at the proximal tibia vs. sham [4]: 11.2%
change of fiber cross-sectional area (gastrocnemius muscle): −40%
cross-sectional area and fiber size distribution (gastrocnemius muscle; in words): significant left shift of fiber size
cortical architecture of the femur midshaft ([5]; cortical bone volume, number, thickness, separation): No significant change
G6PC expression vs. sham (G6PC): ~8 fold
change of GLUT4 expression (GLUT4): −56.5%
levels of SOST mRNA vs. Sham (SOST): −22%
decrease in the OPG/RANKL ratio vs. sham (RANKL): about three-fold
mRNA level of RANKL vs. sham (RANKL): ~7 fold
muscle mass gastrocnemius vs. sham ([10]; NS): −12.5%
muscle mass biceps vs. sham ([10]; p<0.01): −14.6%
muscle mass EDL vs. sham ([10]; p<0.05): −10.4%
FOXO1 protein level in gastrocnemius and soleus muscle vs. SCI-veh (FOXO1): drastically elevated
Structure (SMILES): C[C@H]1C[C@@H]2[C@H]([C@@H](O)C[C@@]3(C)[C@H]2CC[C@]3(O)C(=O)CO)[C@@]2(C)C=CC(=O)C=C12 [MP, methylprednisolone]
change of SCI-induced accumulation of nitrotyrosine vs. SCI-veh (nitrotyrosine): −40.0%
MAFbx and MuRF1 mRNA level in gastrocnemius muscle [1]: more significant induction
MAFbx mRNA level in soleus vs. SCI-veh group [1]: more significant increases
body weight loss ([3]; Day 1 and Day 2 post injury, vs control animals): significantly higher weight loss
food intake ([3]; vs all other experiment groups): Pronounced decrease of food intake
trabecular bone architecture of the distal femur ([5]; μCT structural parameters): more significant change in each of those structural parameters than SCI-veh group
fasting glucose level vs. sham [6]: +10.4%
mRNA level of TNF-α in gastrocnemius and soleus muscle (TNF-α [7]): significantly increased
pharmacokinetic half-life [8]: 2.5 to 3 h
change of SCI-induced TNF-α expression vs. SCI-veh (TNF-α [9]): −32.5%
